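Cells were grown in 96-well plates and exposed to each compound for 48 hours at five concentrations; endpoints were interpolated linearly between bracketing concentrations, or set to the highest concentration if not reached. GI50 = concentration required for 50% inhibition of growth. Definition used: TGI = concentration required for complete inhibition of growth.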
Tests used:
Assay in all cases: NCI anticancer screen, dose series, 48 h
[1] = system: U251 CNS
[2] = system: OVCAR-8 ovarian
[3] = system: CAKI-1 renal
[4] = system: SNB-19 CNS
[5] = system: HOP-92 NSCLC
[6] = system: MOLT-4 leukemia
[7] = system: HCT-116 colon
[8] = system: SW-620 colon
[9] = system: HCC-2998 colon
[10] = system: SN12C renal
[11] = system: BT-549 breast
[12] = system: SK-MEL-28 melanoma
[13] = system: MDA-MB-435
[14] = system: MALME-3M melanoma
[15] = system: M14 melanoma
[16] = system: HOP-62 NSCLC
[17] = system: A549 NSCLC
[18] = system: NCI-H226 lung
[19] = system: NCI/ADR-RES ovarian
[20] = system: HCT-15 colon
[21] = system: SK-MEL-2 melanoma
[22] = system: OVCAR-3 ovarian
[23] = system: MCF7 breast
[24] = system: NCI-H522 lung
[25] = system: SF-268 CNS
[26] = system: KM12 colon
[27] = system: UACC-62 melanoma
[28] = system: SK-MEL-5 melanoma
[29] = system: SR leukemia
[30] = system: K-562 leukemia
[31] = system: SF-539 CNS
[32] = system: DU-145 prostate
[33] = system: HL-60(TB) leukemia
[34] = system: 786-0 renal
[35] = system: NCI-H23 lung
[36] = system: SNB-75 CNS
[37] = system: SK-OV-3 ovarian
[38] = system: A498 renal
[39] = system: NCI-H460 lung
[40] = system: IGROV1 ovarian
[41] = system: HS 578T breast
[42] = system: LOX IMVI melanoma
[43] = system: UACC-257 melanoma
[44] = system: RXF 393 renal
[45] = system: RPMI-8226 leukemia
[46] = system: ACHN renal
[47] = system: T-47D breast
[48] = system: UO-31 renal
[49] = system: COLO 205 colon
[50] = system: HT29 colon
[51] = system: SF-295 CNS
[52] = system: CCRF-CEM leukemia
[53] = system: OVCAR-4 ovarian
[54] = system: PC-3 prostate
[55] = system: TK-10 renal
[56] = system: MDA-MB-231 breast
[57] = system: OVCAR-5 ovarian

Question: Which results are given for `Cn1cc(C2=C(c3cc[nH]c3)C(=O)NC2=O)c2ccccc21`?
Answer: GI50 [1]: > 25 µM; TGI [1]: > 25 µM; GI50 [2]: > 25 µM; TGI [2]: > 25 µM; GI50 [3]: > 25 µM; TGI [3]: > 25 µM; GI50 [4]: > 25 µM; TGI [4]: > 25 µM; GI50 [5]: > 25 µM; TGI [5]: > 25 µM; GI50 [6]: > 25 µM; TGI [6]: > 25 µM; GI50 [7]: > 25 µM; TGI [7]: > 25 µM; GI50 [8]: > 25 µM; TGI [8]: > 25 µM; GI50 [9]: > 25 µM; TGI [9]: > 25 µM; GI50 [10]: > 25 µM; TGI [10]: > 25 µM; GI50 [11]: > 17.9 µM; TGI [11]: > 25 µM; GI50 [12]: > 25 µM; TGI [12]: > 25 µM; GI50 [13]: 19.7 µM; TGI [13]: > 25 µM; GI50 [14]: > 25 µM; TGI [14]: > 25 µM; GI50 [15]: > 25 µM; TGI [15]: > 25 µM; GI50 [16]: > 25 µM; TGI [16]: > 25 µM; GI50 [17]: > 25 µM; TGI [17]: > 25 µM; GI50 [18]: 15.5 µM; TGI [18]: > 25 µM; GI50 [19]: > 25 µM; TGI [19]: > 25 µM; GI50 [20]: > 25 µM; TGI [20]: > 25 µM; GI50 [21]: > 25 µM; TGI [21]: > 25 µM; GI50 [22]: > 22.7 µM; TGI [22]: > 25 µM; GI50 [23]: 11.8 µM; TGI [23]: > 25 µM; GI50 [24]: 24.3 µM; TGI [24]: > 25 µM; GI50 [25]: > 25 µM; TGI [25]: > 25 µM; GI50 [26]: 25 µM; TGI [26]: > 25 µM; GI50 [27]: > 25 µM; TGI [27]: > 25 µM; GI50 [28]: > 25 µM; TGI [28]: > 25 µM; GI50 [29]: 12 µM; TGI [29]: > 25 µM; GI50 [30]: > 25 µM; TGI [30]: > 25 µM; GI50 [31]: > 25 µM; TGI [31]: > 25 µM; GI50 [32]: > 25 µM; TGI [32]: > 25 µM; GI50 [33]: > 25 µM; TGI [33]: > 25 µM; GI50 [34]: > 25 µM; TGI [34]: > 25 µM; GI50 [35]: > 25 µM; TGI [35]: > 25 µM; GI50 [36]: 1.96 µM; TGI [36]: > 25 µM; GI50 [37]: > 23.3 µM; TGI [37]: > 25 µM; GI50 [38]: 8.98 µM; TGI [38]: > 25 µM; GI50 [39]: > 25 µM; TGI [39]: > 25 µM; GI50 [40]: > 25 µM; TGI [40]: > 25 µM; GI50 [41]: 9.97 µM; TGI [41]: > 25 µM; GI50 [42]: > 25 µM; TGI [42]: > 25 µM; GI50 [43]: > 25 µM; TGI [43]: > 25 µM; GI50 [44]: 18.3 µM; TGI [44]: > 25 µM; GI50 [45]: > 25 µM; TGI [45]: > 25 µM; GI50 [46]: > 25 µM; TGI [46]: > 25 µM; GI50 [47]: > 17.5 µM; TGI [47]: > 25 µM; GI50 [48]: > 18.5 µM; TGI [48]: > 25 µM; GI50 [49]: > 25 µM; TGI [49]: > 25 µM; GI50 [50]: > 25 µM; TGI [50]: > 25 µM; GI50 [51]: > 25 µM; TGI [51]: > 25 µM; GI50 [52]: > 25 µM; TGI [52]: > 25 µM; GI50 [53]: > 25 µM; TGI [53]: > 25 µM; GI50 [54]: > 25 µM; TGI [54]: > 25 µM; GI50 [55]: > 25 µM; TGI [55]: > 25 µM; GI50 [56]: > 25 µM; TGI [56]: > 25 µM; GI50 [57]: > 25 µM; TGI [57]: > 25 µM

— PubChem BioAssay (NCI)
